Measured values from patent EP0375557A1, “Glycine derivative process for preparation thereof, and pharmaceutical composition containing it” (TANABE SEIYAKU CO., LTD., priority 1988, dated 1990).

Test system: arachidonic acid-induced pulmonary embolism
Assay: Inhibiting effect on arachidonic acid-induced pulmonary embolism (in vivo)
Settings: Mus musculus, 3 h; oral administration in aqueous CMC to fasted ddY-male mice; arachidonic acid (125 mg/10ml/kg) into tail vein three hours later; dose required to induce at least 15 % decrease in recovery time of locomotive activity vs control; read-out: Minimum effective dose
Method: [Inhibiting effect on arachidonic acid-induced pulmonary embolism (in vivo)]
An aqueous carboxymethylcellulose (hereinafter referred to as "CMC") solution containing a test compound (20 ml/kg) was orally administered to ddY-male mice (8 mice per group) fasted overnight.

Structure (SMILES)	minimal effective dose [mg/kg]
CC(Cc1ccc(NCC(=O)O)cc1)NS(=O)(=O)c1ccc(Cl)cc1 (stereo not shown) [Example 2]	1
CC(CNS(=O)(=O)c1ccc(Cl)cc1)c1ccc(NCC(=O)NCCC(=O)O)cc1 (stereo not shown) [Example 3]	1
CC(CNS(=O)(=O)c1ccc(Cl)cc1)c1ccc(NCC(=O)NCCCC(=O)O)cc1 (stereo not shown) [Example 4]	3
O=C([O-])CNc1ccc(CCNS(=O)(=O)c2ccccc2)cc1.[Na+] [Known compound, Sodium N-[4-(2-benzenesulfonylaminoethyl)phenyl]glycinate, reference compound]	10
